Consider twelve molecules from patent US8765733B2, “Amine substituted methanesulfonamide derivatives as vanilloid receptor ligands” (Gruenenthal GmbH, priority 2011, dated 2014).

By inhibition is commonly meant the share of the control response that was lost under treatment. As a reminder, the Ki is a measure of affinity in units of concentration, obtained from inhibition or displacement.

Molecules are shown by their SMILES.

In the first assay the target is vanilloid receptor 1 (VR1/TRPV1 receptor) (Homo sapiens, UniProt Q8NER1). Description: FLIPR functional assay (Ca2+ influx, capsaicin) on the vanilloid receptor 1. It is filed as cell-based. Particulars: capsaicin (Cap) stimulus, compound at 5 μM, read-out: inhibition (as a percentage) Cap, (human being).
`CC(C(=O)NCc1ccc(C(F)(F)F)nc1N1CCOCC1)c1ccc(CNS(C)(=O)=O)c(F)c1` (stereo not drawn) [Example 35, 2-(3-fluoro-4-(methylsulfonamidomethyl)phenyl)-N-((2-morpholino-6-(trifluoromethyl)pyridin-3-yl)methyl)propanamide]: the inhibition at 5 µM was 53%. With `COC1CN(c2nc(C(F)(F)F)ccc2CNC(=O)C(C)c2ccc(CNS(C)(=O)=O)c(F)c2)C1` (stereo not drawn) [Example 14, 2-(3-fluoro-4-(methylsulfonamidomethyl)phenyl)-N-((2-(3-methoxyazetidin-1-yl)-6-(trifluoromethyl)pyridin-3-yl)methyl)propanamide], the inhibition at 5 µM was 46%.

Still in this assay, the particulars now being: functional (f), capsaicin (Cap) stimulus, Ki from IC50 by Cheng-Prusoff, read-out: (f) Ki (human being) [nM] Cap.
For the molecule `CC(C(=O)NCc1ccc(C(F)(F)F)nc1N1CCC(c2ccccc2)(N(C)C)CC1)c1ccc(CNS(C)(=O)=O)c(F)c1` (stereo not drawn) [Example 34, N-((2-(4-(dimethylamino)-4-phenylpiperidin-1-yl)-6-(trifluoromethyl)pyridin-3-yl)methyl)-2-(3-fluoro-4-(methylsulfonamidomethyl)phenyl)propanamide], the Ki is 61 nM.

With `CC1CCN(c2nc(C(F)(F)F)ccc2CNC(=O)C(C)c2ccc(CNS(N)(=O)=O)cc2)CC1` (stereo not drawn) [Example 58, N-((2-(4-methylpiperidin-1-yl)-6-(trifluoromethyl)pyridin-3-yl)methyl)-2-(4-((sulfamoylamino)methyl)phenyl)propanamide], the Ki was 2 nM. The same measure, in the same setting: the same measure for `CC1CCN(c2nc(C(F)(F)F)ccc2CNC(=O)C(C)c2ccc(CNS(C)(=O)=O)c(F)c2)CC1` (stereo not drawn) [Example 30, 2-(3-fluoro-4-(methylsulfonamidomethyl)phenyl)-N-((2-(4-methylpiperidin-1-yl)-6-(trifluoromethyl)pyridin-3-yl)methyl)propanamide]: 8 nM; for `NS(=O)(=O)NCc1ccc(NC(=O)NCc2ccc(C(F)(F)F)nc2N2CCCC2)cc1F` [Example 60, 1-{3-fluoro-4-[(sulfamoylamino)methyl]phenyl}-3-{[2-pyrrolidin-1-yl-6-(trifluoromethyl)pyridin-3-yl]methyl}urea]: 20 nM. The same measure, in the same setting: the figure for `CCCCNc1nc(C(F)(F)F)ccc1CNC(=O)C(C)c1ccc(CNS(C)(=O)=O)c(F)c1` (stereo not drawn) [Example 9, N-((2-(butylamino)-6-(trifluoromethyl)pyridin-3-yl)methyl)-2-(3-fluoro-4-(methylsulfonamidomethyl)phenyl)propanamide] is 95 nM. The same measure, in the same setting: the figure for `CC1CCN(c2nc(C(C)(C)C)ccc2CNC(=O)C(C)c2ccc(CNS(C)(=O)=O)c(F)c2)CC1` (stereo not drawn) [Example 28, N-((6-tert-butyl-2-(4-methylpiperidin-1-yl)pyridin-3-yl)methyl)-2-(3-fluoro-4-(methylsulfonamidomethyl)phenyl)propanamide] is 5 nM; for `COc1cc(NC(=O)NCc2ccc(C(F)(F)F)nc2N2CCC(C)CC2)ccc1CNS(C)(=O)=O` [Example 49, N-(2-methoxy-4-(3-((2-(4-methylpiperidin-1-yl)-6-(trifluoromethyl)pyridin-3-yl)methyl)ureido)benzyl)methanesulfonamide] it is 12 nM; for `CC1CCN(c2nc(C(F)(F)F)ccc2CNC(=O)Nc2ccc(CNS(N)(=O)=O)cc2)CC1` [Example 59, 1-{[2-(4-methylpiperidin-1-yl)-6-(trifluoromethyl)pyridin-3-yl]methyl}-3-{4-[(sulfamoylamino)methyl]phenyl}urea] it is 1 nM. As for `CC1CCN(c2nc(C(F)(F)F)ccc2CNC(=O)Cc2ccc(CNS(C)(=O)=O)c(F)c2)CC1` [Example 25], the Ki came to 4 nM. For `NS(=O)(=O)NCc1ccc(NC(=O)NCc2ccc(C(F)(F)F)nc2N2CCCC2)cc1` [Example 57, 1-{[2-pyrrolidin-1-yl-6-(trifluoromethyl)pyridin-3-yl]methyl}-3-{4-[(sulfamoylamino)methyl]phenyl}urea], the Ki turned out to be 85 nM.
